From a melting point compilation (Tetko et al.; mined from patent text by program, amines drawn as free bases though some values may be those of a salt)

Compound | melting point
COc1cc(C)c(N2C(=O)CS/C2=N/N=C\c2ccc(-c3ncn(-c4ccc(OC(F)(F)F)cc4)n3)cc2)c(C)c1 | 188 to 190 °C
COc1cccc2c1Sc1cc(Cl)ccc1C2 | 72 to 74 °C
COc1ccc2cc([C@H](C)C(=O)OCC(CO[N+](=O)[O-])(CO[N+](=O)[O-])[N+](=O)[O-])ccc2c1 | 69 to 71 °C
COc1cc(C(=O)O)ccc1Cc1c[nH]c2ccc(NC(=O)CC3CCCC3)cc12 | 218 to 219 °C
CCS(=O)(=O)c1ccc(N)cc1S(=O)(=O)NC(C)(C)C | 193 to 195 °C
CCCN(CCC)[C@@H]1CCc2ccc(C(N)=O)cc2C1 | 132 °C
Cc1ccc(CN(Cc2ccc(C)cc2)c2nccc(-c3ccc(-c4ccc(N(c5ccccc5)c5ccccc5)cc4)cc3)n2)cc1 | 153 to 154 °C
CCCC(=O)c1cnc2c(C)cccc2c1Nc1ccc(OC)cc1C | 114 to 115 °C
Nc1ccc(CN2CCSC2)cc1 | 73 to 74 °C
C#Cc1ccc2c(c1)C(c1ccccn1)=NCc1c(C(=O)NC)ncn1-2 | 215 to 216 °C
CCOC(=O)C(C)=Cc1cn(Cc2ccc(C(=O)OC(C)(C)C)cc2OC)c2cc(C(=O)NCC3CCCC3)ccc12 | 118 to 120 °C
Cc1c(CCl)nc2c(NC(=O)C(C)(C)C)cccn12 | 168 °C
Cc1nc(NC(=N)N)sc1C(=O)N1CC[C@@H](COCC(=O)O)C1 | 136 °C
CC(C)(C)OC(=O)NC1CCCCc2cc(OCC3CCCCC3)ccc21 (centres undefined) | 125 to 126 °C
O=C1CCC(N2C(=O)c3ccc(CNC(=O)c4ccc(SC(F)(F)F)cc4)cc3C2=O)C(=O)N1 (centres undefined) | 171 to 173 °C
NSc1nc(N)nc2c1ncn2C1OC(CO)C(O)C1O (centres undefined) | 190 to 192 °C
COCc1nc2c(N)nc3cc(CCC(=O)N4CCOCC4)ccc3c2n1CC(C)(C)O | 215 to 217 °C
CCc1nc(/C=C\c2cn(-c3ccccc3)nc2OCc2ccc(OCc3nc(-c4cccc(C(=O)OC)c4)oc3C)c(OC)c2)cs1 | 125 to 126 °C

Continued, values first:

melting point | Compound
166 to 167 °C | CC1=C(C(=O)OC(C)C)C(c2cccc([N+](=O)[O-])c2)N(C(=O)NOCc2ccccc2)C(=O)N1 (centres undefined)
175 to 178 °C | Cc1nc2c(OCc3c(Cl)ccc(N(C)C(=O)CN)c3Cl)cccn2c1Br
89.2 °C | CCCCOn1nnc2ccc(C(O)c3ccccc3)cc21 (centres undefined)
174 to 177 °C | Cc1nn(-c2ccccc2)c(-c2ccc(Cl)cc2)c1CC(=O)O
282 to 283 °C | NC(=O)c1ccc(NC(=NC(=O)c2cccc(Br)c2)NC(=O)c2ccccc2)cc1
193 to 194 °C | Cc1nn(C)cc1C(=O)Nc1ccc(OCC(C)(C)C)c(C#N)c1
> 250 °C | O=c1[nH]c2cscc2c(=O)n1CCN1CCN(c2ccccc2)CC1
170 to 171 °C | COc1ccsc1CN=C(NC#N)Oc1ccccc1
245 °C | O=C(O)c1cc(Cl)cc2c1[nH]c1ccccc12
130 to 131 °C | O=C(Cc1ccccc1)N[C@H]1CN(OCc2ccccc2)C1=O
160 to 164 °C | COC(=O)c1ccc(C(c2ccccc2)(c2ccccc2)c2ccccc2)cn1
110 to 114 °C | CC(C)c1nn(-c2ccc3ccccc3n2)c(-c2ccc(F)cc2)c1Br
123 °C | COc1ccc(-c2ccc(=O)n(Cc3nc(-c4ccc(F)cc4)no3)c2)cc1
112 to 113 °C | CCCn1c(=Nc2ccc([N+](=O)[O-])cc2)sc2ncccc2c1=O
36 to 37 °C | CCOC(=O)C=Cc1ccc(C)nc1
203 to 205 °C | COc1ccc(C(=O)Nc2ccc(F)cc2)cc1NC(=S)Nc1ccc(C(=O)O)cc1
105 to 110 °C | Nc1cccc(-n2cnc3c([N+](=O)[O-])cccc32)c1
166 to 168 °C | N=C(NC=Cc1ccc(N)cc1)c1ccccc1
161 °C | CSc1nn(C(=O)Oc2ccccc2)c(=O)n1N
133 °C | COc1cccc2c1CCc1ccn(CCNC(C)=O)c1-2
125 to 126 °C | CC(C)Cn1c(-c2c(F)cccc2F)c(Br)nc(Br)c1=O
